The values that follow come from ChEMBL document CHEMBL3259758, “Thiazolopyridine ureas as novel antitubercular agents acting through inhibition of DNA Gyrase B” (J Med Chem, 2013).

One data set deals with Plasma. To be noted: human.
The next data set can be described thus: physchem. To be noted: octanol/water, pH 7.4.
The nature of data set [1]: AUC in po dosed Balb/c mouse infected with Mycobacterium tuberculosis H37Rv administered via gavage for 10 days starting 3 days post-infection measured at day 9 of drug dosing. To be noted: plasma. Format: ADME, organism-based.

Take `CCNC(=O)Nc1nc2cc(-c3ccn(CCOC)c(=O)c3)c(N[C@H]3CCOC3)nc2s1`: the “Cp(f)” value in the data set with Plasma turned out to be 13 µM. As a reminder, the logD is the decadic logarithm of the distribution of all forms, ionised or not, between an organic phase and buffer at a given pH. Turning to `C=CCNC(=O)Nc1nc2cc(-c3cccnc3)ccc2s1`, the “Cp(f)” value in the data set on Plasma came out at 0.7 µM. Further, the logD in the data set “physchem” came out at 3.9. In the same order, the values of `C=CCNC(=O)Nc1nc2cc(-c3cccnc3)cnc2s1` are 3.2 µM and 2.9.

One may read the AUC as concentration integrated over time. High values mean more exposure, low ones less exposure. Compound `CCNC(=O)Nc1nc2cc(-c3cccnc3)c(N[C@H]3CCOC3)nc2s1` had an AUC in data set [1] of 200 µg·h/mL. The “Cp(f)” value with Plasma was determined as 28 µM. In the data set “physchem”, this compound gave a log distribution coefficient (logD) of 2. For the compound `CCNC(=O)Nc1nc2cc(-c3cccnc3)c(NCC3CCOC3)nc2s1` (stereo not drawn), the “Cp(f)” value in the data set on Plasma was determined as 40 µM. Besides, the pH-dependent lipophilicity (logD) in the data set “physchem” is 2.7. With `CCNC(=O)Nc1nc2cc(-c3ccc(F)nc3)c(OCC3CCOC3)nc2s1` (stereo not drawn), in the data set on Plasma, the “Cp(f)” value was determined as 0.6 µM. Still for that read-out and setting: the same measure for `CCNC(=O)Nc1nc2cc(-c3ccc(C)nc3)c(OCC3CCOC3)nc2s1` (stereo not drawn): 0.9 µM; for `CCNC(=O)Nc1nc2cc(-c3cncc(OC)c3)c(OCC3CCOC3)nc2s1` (stereo not drawn): 2.5 µM; for `CCNC(=O)Nc1nc2cc(-c3cnc(C)nc3)c(OCC3CCOC3)nc2s1` (stereo not drawn): 6 µM. As for `CCNC(=O)Nc1nc2cc(-c3ccc(C#N)nc3)c(NC3CCOCC3)nc2s1`, the “Cp(f)” value with Plasma is 6 µM. The same measure, in the same setting: the value for `CCNC(=O)Nc1nc2cc(-c3cncc(OCCN(C)C)c3)c(OCC3CCOC3)nc2s1` (stereo not drawn) was 11 µM; that for `CCNC(=O)Nc1nc2cc(-c3cncc(OCCN4CCOCC4)c3)c(OCC3CCOC3)nc2s1` (stereo not drawn) was 10 µM. Same read-out and setting: the value for `CCNC(=O)Nc1nc2cc(-c3ccn(C)c(=O)c3)c(OCC3CCOC3)nc2s1` (stereo not drawn) was 5 µM; that for `CCNC(=O)Nc1nc2cc(-c3cc(C(C)C)n(C)c(=O)c3)c(OCC3CCOC3)nc2s1` (stereo not drawn) was 4 µM. On the same count and under the same terms, the same measure for `CCNC(=O)Nc1nc2cc(-c3ccn(CCOC)c(=O)c3)c(OCC3CCOC3)nc2s1` (stereo not drawn): 7 µM. For the compound `CCNC(=O)Nc1nc2cc(-c3ccn(CCOC)c(=O)c3)c(O[C@@H]3CCOC3)nc2s1`, the “Cp(f)” value in the data set on Plasma amounted to 11 µM. Consider `CCNC(=O)Nc1nc2cc(-c3ccn(CCN(C)C)c(=O)c3)c(OCC3CCOC3)nc2s1` (stereo not drawn), for which the “Cp(f)” value with Plasma came out at 5 µM. The same measure, in the same setting: the value for `CCNC(=O)Nc1nc2cc(-c3ccn(CCN4CCOCC4)c(=O)c3)c(OCC3CCOC3)nc2s1` (stereo not drawn) was 5 µM.
